# Literature values as cited in patent publication US7329659B2, “Substituted-1-phthalazinamines as vr-1 antagonists” (Merck Sharp & Dohme Limited, priority 2003, dated 2008).
# Target: VR1 (Rattus norvegicus, UniProt O35433)
# Conditions: Wahl et al., Mol. Pharmacol., 59:9, 2001
# VR1, sequence (O35433 whole entry): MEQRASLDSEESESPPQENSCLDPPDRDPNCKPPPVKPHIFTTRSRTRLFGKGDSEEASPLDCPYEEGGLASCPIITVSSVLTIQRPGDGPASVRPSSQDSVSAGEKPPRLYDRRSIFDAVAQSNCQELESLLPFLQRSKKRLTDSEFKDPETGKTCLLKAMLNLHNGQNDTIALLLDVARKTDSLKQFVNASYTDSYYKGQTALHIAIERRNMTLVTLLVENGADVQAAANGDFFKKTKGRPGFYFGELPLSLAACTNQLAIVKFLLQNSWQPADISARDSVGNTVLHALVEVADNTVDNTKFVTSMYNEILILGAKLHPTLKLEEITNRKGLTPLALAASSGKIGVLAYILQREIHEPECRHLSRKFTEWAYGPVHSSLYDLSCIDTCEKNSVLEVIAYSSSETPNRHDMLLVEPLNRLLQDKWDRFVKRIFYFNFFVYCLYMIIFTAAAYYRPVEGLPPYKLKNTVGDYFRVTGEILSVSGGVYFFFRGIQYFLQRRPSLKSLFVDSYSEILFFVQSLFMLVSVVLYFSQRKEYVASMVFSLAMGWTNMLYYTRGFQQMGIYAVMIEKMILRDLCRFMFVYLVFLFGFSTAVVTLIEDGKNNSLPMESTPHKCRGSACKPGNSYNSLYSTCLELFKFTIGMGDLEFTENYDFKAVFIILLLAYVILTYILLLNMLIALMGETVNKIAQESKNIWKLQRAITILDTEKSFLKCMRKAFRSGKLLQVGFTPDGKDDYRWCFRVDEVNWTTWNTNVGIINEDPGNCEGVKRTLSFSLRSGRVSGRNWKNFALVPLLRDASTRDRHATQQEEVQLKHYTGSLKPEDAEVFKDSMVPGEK
smiles,measurement,value
C=C(C)[C@]12C[C@@H](C)[C@@]34O[C@](Cc5ccccc5)(O[C@@H]1[C@@H]3C=C(COC(=O)Cc1cc(I)c(O)c(OC)c1)C[C@]1(O)C(=O)C(C)=C[C@@H]41)O2 [Iodo-resiniferatoxin],VR1 antagonist potency (in words),nanomolar antagonist of VR1
